Experimental data from patent EP1997826A2, “Synthetic ligands for immunoglobulins and pharmaceutical compositions containing them” (Tecnogen S.p.A., priority 2007, dated 2008).

Experiments:
[1] = system: immunoglobulin fraction of the raw serum; assay: affinity chromatography of raw rabbit serum on peptide immobilized on CH-Sepharose-4B; assay type: binding; settings: 50 mM Bis-Tris pH 6.5, elution with acetic acid 0.1 M pH 3.0, albumin eluted to the dead volume
Method: (§1) The peptide of formula (IB) prepared in Example 1 (10 mg) was dissolved in 5 ml of aqueous solution of sodium bicarbonate 0.1 M, NaCl 0.5 M, pH 8.5 and then added to 0.5 g of activated resin CH-Sepharose-4B (Amersham Biosciences, Uppsala, Sweden, Cat. No. 17-0490-01), a preactivated support for affinity chromatography for the direct coupling of peptides and proteins. The suspension was stirred for 24 hours and the extent of coupling was monitored by taking samples of the reaction mixture, at various times, followed by analysis by RP-HPLC.
(§2) Approximately 90-95% of the initial peptide is found to be bound covalently to the resin after 24 hours. The derivatized resin is incubated with 0.1 M Tris, pH 8.5 to block any sites of the resin that are still reactive, and is then packed in a glass column 100 x 0.6 cm I.D. with a variable piston (OMNIFIT, Cat. No. 006CC-06-10-FF).
(§3) For the purification of immunoglobulins from serum, the column was equilibrated with a buffer 50 mM Bis-Tris (Sigma, Cat. No. B9754), pH 6.5, to a flow of 1 ml/min, monitoring the eluent at 280 nm. Raw rabbit serum (Sigma, Cat, No. R9133) was loaded in the column and, after elution of the material that was not bound, the eluent was changed to acetic acid 0.1 M, pH 3.0, for elution of the adsorbed material. […]

[2] = system: immunoglobulins (IgG, IgM, IgA and IgE); assay: affinity chromatography of raw human serum on peptide immobilized on CH-Sepharose-4B; assay type: binding; settings: Western Blot, albumin not retained
Method: as §1, §2, §3

For “(H-L-Cys(p-MeOBzl)-D-Arg-D-Thr-D-Tyr)4-L-Lys2-L-Lys-L-Lys-OH [Peptide IB]”, the “retention of immunoglobulins by the peptide column” value [1] was “able to retain the immunoglobulin fraction of the raw serum” and the “retention of immunoglobulins by the peptide column” value [2] was “able to retain the immunoglobulins (IgG, IgM, IgA and IgE)”.
